Structures are written as SMILES.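 48-hour exposure; five concentrations; linearly interpolated endpoints. GI50 marks 50% less growth. TGI denotes the concentration required for complete inhibition of growth.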

A word on the GI50: it is the concentration that inhibits growth by half. Usually TGI stands for the concentration at which net growth stops. Low values mean more potent growth arrest, high ones less potent growth arrest.

Some test systems named below: HOP-62 NSCLC; SF-539 CNS; MDA-MB-231 breast; SK-MEL-5 melanoma; UACC-62 melanoma; UO-31 renal; DU-145 prostate; KM12 colon; LXFL 529 NSCLC.
What all share (assay): DTP human tumour cell line panel, 48 h

In the case of `Cc1cc2nc3c4cccc(O)c4n(CCN(C)C)c3nc2cc1C`, the GI50 is 1.88 µM in the assay with HOP-62 NSCLC; 1.51 µM in the assay with SF-539 CNS; 2.04 µM in the assay with MDA-MB-231 breast; 1.67 µM in the assay with SK-MEL-5 melanoma; 1.73 µM with UACC-62 melanoma; 0.86 µM in the assay on UO-31 renal. Also, the GI50 with DU-145 prostate was 2.96 µM; in the assay with KM12 colon, 1.65 µM. For the same compound, the total growth inhibition concentration (TGI) was 7.53 µM in the assay with HOP-62 NSCLC; 3.23 µM in the assay on SF-539 CNS; 5.63 µM in the assay with MDA-MB-231 breast; 3.08 µM with SK-MEL-5 melanoma; 3.73 µM with UACC-62 melanoma; 3.28 µM with UO-31 renal. Also, the concentration for total growth inhibition (TGI) amounted to 8.79 µM with DU-145 prostate and 4.17 µM in the assay with KM12 colon.
Regarding `O=[N+]([O-])c1ccc(N=Nc2c(O)[nH]c3ccccc23)cc1`, the concentration for total growth inhibition (TGI) with HOP-62 NSCLC is 34 µM; in the assay on SF-539 CNS it was 9.36 µM; in the assay with MDA-MB-231 breast, more than 58.9 µM; in the assay on SK-MEL-5 melanoma, more than 77.3 µM; with UACC-62 melanoma, more than 100 µM; in the assay on UO-31 renal, 39.3 µM. In addition, the TGI in the assay on DU-145 prostate was 36.4 µM; in the assay with KM12 colon it was more than 100 µM.
For `COc1ccc(-c2ccccc2)cc1-c1c(Nc2cc(Cl)cc(Cl)c2O)c(=O)c1=O`, the GI50 was 1.56 µM in the assay with HOP-62 NSCLC; 1.59 µM with SF-539 CNS; 1.2 µM in the assay on MDA-MB-231 breast; 0.97 µM in the assay on SK-MEL-5 melanoma; 1.29 µM in the assay with UACC-62 melanoma; 1.25 µM with UO-31 renal. The GI50 is 1.7 µM with DU-145 prostate and 1.53 µM in the assay with KM12 colon. The TGI in the assay on HOP-62 NSCLC was more than 50 µM; in the assay on SF-539 CNS, more than 50 µM; with MDA-MB-231 breast it was 3.17 µM; with SK-MEL-5 melanoma, 2.25 µM; in the assay on UACC-62 melanoma it was more than 50 µM; with UO-31 renal, more than 50 µM. Further, the TGI in the assay with DU-145 prostate and in the assay on KM12 colon was more than 50 µM throughout.
Consider `CO/N=C(/COc1c(-c2ccccc2)oc2ccccc2c1=O)c1ccc(F)cc1`, for which the GI50 with HOP-62 NSCLC was 27.3 µM; in the assay on SF-539 CNS it was 85.6 µM; in the assay on MDA-MB-231 breast, 20.5 µM; with SK-MEL-5 melanoma it was more than 100 µM; with UACC-62 melanoma, 96.1 µM; with UO-31 renal it was more than 100 µM. In addition, the GI50 in the assay on DU-145 prostate and in the assay with KM12 colon was more than 100 µM in each case. Besides, the TGI with HOP-62 NSCLC is 67.8 µM; in the assay on SF-539 CNS, more than 100 µM; in the assay on MDA-MB-231 breast, 53.8 µM; in the assay with SK-MEL-5 melanoma, more than 100 µM; with UACC-62 melanoma, more than 100 µM; in the assay with UO-31 renal, more than 100 µM. Further, the TGI with DU-145 prostate and in the assay on KM12 colon was more than 100 µM in each case.
Consider `Clc1cc(Cl)cc(Nc2nc3ccccc3nc2-c2cccs2)c1`, for which the TGI in the assay with HOP-62 NSCLC, with SF-539 CNS, in the assay on LXFL 529 NSCLC and with UO-31 renal was more than 100 µM in each case.
Regarding `CN(C)CCNC(=O)c1nc([N+](=O)[O-])cn1C`, the TGI with HOP-62 NSCLC, in the assay with SF-539 CNS, in the assay on MDA-MB-231 breast, with SK-MEL-5 melanoma, with UACC-62 melanoma and with UO-31 renal was more than 100 µM in each case. Further, the TGI with DU-145 prostate and in the assay on KM12 colon was more than 100 µM throughout.
Take `COc1ccc(-n2c(C)nc3c(c(C)nn3-c3ccccc3)c2=O)cc1`: the GI50 with HOP-62 NSCLC was 0.0789 µM; in the assay with SF-539 CNS, 0.0471 µM; in the assay with MDA-MB-231 breast, 0.311 µM; in the assay with SK-MEL-5 melanoma, 0.0615 µM; in the assay with UACC-62 melanoma it was 0.0426 µM; in the assay with UO-31 renal, 0.261 µM. Also, the GI50 in the assay with DU-145 prostate was 0.29 µM; with KM12 colon it was 0.0532 µM. For the same compound, the concentration for total growth inhibition (TGI) with HOP-62 NSCLC is more than 100 µM; with MDA-MB-231 breast it was more than 100 µM; in the assay on SK-MEL-5 melanoma, 4.6 µM; in the assay with UACC-62 melanoma, more than 100 µM; with UO-31 renal, more than 43.4 µM; with DU-145 prostate it was more than 100 µM. Besides, the TGI in the assay on KM12 colon is more than 100 µM.
With `Cc1ccc2[nH]c(C(=O)NN3C(=O)C(C)SC34CCCCC4C)c(-c3ccccc3)c2c1` (configuration not stated), the GI50 with HOP-62 NSCLC is 20.2 µM; with SF-539 CNS, 22.3 µM; with MDA-MB-231 breast, 17.4 µM; in the assay on SK-MEL-5 melanoma, 16 µM; in the assay with UACC-62 melanoma, 13.4 µM; in the assay on UO-31 renal, 16.8 µM. Besides, the GI50 with DU-145 prostate is 21.7 µM; with KM12 colon, 18.5 µM. The TGI stood at 37.7 µM in the assay with HOP-62 NSCLC; 44.9 µM in the assay on SF-539 CNS; 34.9 µM in the assay with MDA-MB-231 breast; 33.5 µM with SK-MEL-5 melanoma; 28.3 µM in the assay on UACC-62 melanoma; 32.6 µM with UO-31 renal. The TGI in the assay with DU-145 prostate came out at 50.7 µM; in the assay on KM12 colon, 39.9 µM.
As for `Cc1cn2c(=O)n(c1=O)Cc1ccccc1C2`, the GI50 with HOP-62 NSCLC was more than 100 µM; in the assay on SF-539 CNS, more than 100 µM; in the assay on MDA-MB-231 breast, 5.84 µM; in the assay on SK-MEL-5 melanoma it was 83.1 µM; with UACC-62 melanoma it was 63.1 µM; in the assay with UO-31 renal, 32.3 µM. Besides, the GI50 with DU-145 prostate and in the assay with KM12 colon was more than 100 µM each time. For the same compound, the total growth inhibition concentration (TGI) in the assay on HOP-62 NSCLC, in the assay on SF-539 CNS, with MDA-MB-231 breast, in the assay on SK-MEL-5 melanoma, with UACC-62 melanoma and in the assay on UO-31 renal was more than 100 µM each time. The total growth inhibition concentration (TGI) in the assay on DU-145 prostate and with KM12 colon was more than 100 µM throughout.
On to `O=C(/C=C\c1ccc2ccccc2n1)c1cc(Cl)ccc1O`, for which the GI50 in the assay on HOP-62 NSCLC was 6.54 µM; in the assay with SF-539 CNS, 7.15 µM; with MDA-MB-231 breast, 5.18 µM; in the assay on SK-MEL-5 melanoma, 13.4 µM; in the assay on UACC-62 melanoma, 7.51 µM; with UO-31 renal it was 4.33 µM. Moreover, the GI50 is 5.81 µM with DU-145 prostate and 8.71 µM with KM12 colon. The TGI was 20.7 µM in the assay on HOP-62 NSCLC; 23.2 µM in the assay with SF-539 CNS; 24.3 µM with MDA-MB-231 breast; 37.5 µM in the assay with SK-MEL-5 melanoma; 21 µM in the assay with UACC-62 melanoma; 17.8 µM in the assay with UO-31 renal. Moreover, the TGI with DU-145 prostate stood at 19.4 µM; with KM12 colon it was 24.5 µM.
As to `N=C(N)c1ccc(-c2ccc(-c3ccc(F)cc3)o2)o1`, the GI50 with HOP-62 NSCLC was 1.6 µM; in the assay with SF-539 CNS, 1.63 µM; with MDA-MB-231 breast it was 1.57 µM; with SK-MEL-5 melanoma, 1.56 µM; in the assay on UACC-62 melanoma, 1.74 µM; with UO-31 renal, 1.43 µM. Also, the GI50 in the assay on DU-145 prostate is 1.8 µM; in the assay with KM12 colon it was 1.44 µM. In addition, the TGI was found to be 3.25 µM with HOP-62 NSCLC; 3.08 µM in the assay on SF-539 CNS; 3.33 µM with MDA-MB-231 breast; 2.92 µM with SK-MEL-5 melanoma; 3.27 µM with UACC-62 melanoma; 2.78 µM with UO-31 renal. In addition, the TGI with DU-145 prostate amounted to 3.36 µM; in the assay with KM12 colon, 3.41 µM.

For the origin of these results see PubChem BioAssay (NCI).
